Measured values reported in patent US20100004128A1, “HERBICIDAL ISOXAZOLINE COMPOUNDS” (SYNGENTA CROP PROTECTION, INC., priority 2006, published 2010).

System: Monocotyledonous and dicotyledonous test plants
Test: Herbicidal action, application pre-emergence
Assay type: in vivo
Parameters: key: 10=total damage to plant; 0=no damage to plant
Conditions: spray solution 1000 mg/l, scale 0-10; for Herbicidal action (damage score) AGSTE: Agrostis tenius; for Herbicidal action (damage score) AMARE: Amaranthus retroflexus; for Herbicidal action (damage score) DIGSA: Digitaria sanguinalis; for Herbicidal action (damage score) POATR: Poa trivialis; for Herbicidal action (damage score) SETFA: Setaria faberi; for Herbicidal action (damage score) SETIT: Setaria italica
Method: Monocotyledonous and dicotyledonous test plants were sown in sterilised standard soil in seed trays each having 96 cells. After one day (pre-emergence) or after 8 to 9 days cultivation (post-emergence) under controlled conditions in a climatic chamber (cultivation at 23/17° C., day/night; 13 hours light; 50-60% humidity; after application at 24/19° C., day/night), the plants were treated with an aqueous spray solution of 1000 mg/l of the active ingredient used (incl. 10% DMSO as solvent). The plants were grown on in the climatic chamber until the test was evaluated (10=total damage to plant, 0=no damage to plant) after 9 or 13 days.

| Compound | Herbicidal action (damage score) AGSTE | Herbicidal action (damage score) AMARE | Herbicidal action (damage score) DIGSA | Herbicidal action (damage score) POATR | Herbicidal action (damage score) SETFA | Herbicidal action (damage score) SETIT |
| --- | --- | --- | --- | --- | --- | --- |
| CCc1nn(C)nc1C(F)(F)S(=O)(=O)C1=NOC(C)(C)C1 [1.26] | 10 | 10 | 10 | 10 | 10 | – |
| CC1(C)CC(S(=O)(=O)C(F)(F)c2nn(C3CCCC3)nc2C(F)(F)F)=NO1 [1.29] | 10 | 8 | 9 | 6 | 9 | – |
| C=CCn1nc(C(F)(F)F)c(C(F)(F)S(=O)(=O)C2=NOC(C)(C)C2)n1 [1.32] | 10 | 10 | 10 | 10 | 10 | – |
| Cn1ncc(C(F)(F)S(=O)(=O)C2=NOC(C)(C)C2)n1 [1.35] | 10 | 10 | 9 | 10 | 9 | – |
| Cn1ncc(C(F)(F)[S+]([O-])C2=NOC(C)(C)C2)n1 (stereo not drawn) [1.36] | 10 | 9 | 10 | 10 | 9 | – |
| CCn1ncc(C(F)S(=O)(=O)C2=NOC(C)(C)C2)n1 (stereo not drawn) [1.37] | 10 | 10 | 9 | 10 | 9 | – |
| CCn1ncc(C(F)(F)S(=O)(=O)C2=NOC(C)(C)C2)n1 [1.38] | 10 | 10 | 9 | 10 | 9 | – |
| CCn1ncc(C(F)(F)[S+]([O-])C2=NOC(C)(C)C2)n1 (stereo not drawn) [1.40] | 10 | 10 | 9 | 10 | 9 | – |
| Cc1nn(C(C)C)nc1C(F)(F)S(=O)(=O)C1=NOC(C)(C)C1 [1.41] | 10 | 10 | 10 | 10 | 9 | – |
| COc1nn(C)nc1C(F)(F)S(=O)(=O)C1=NOC(C)(C)C1 [1.43] | 10 | 10 | 10 | 0 | 10 | – |
| COc1nn(C)nc1C(F)(F)[S+]([O-])C1=NOC(C)(C)C1 (stereo not drawn) [1.44] | 10 | 10 | 10 | 0 | 9 | – |
| Cn1nc(Br)c(C(F)S(=O)(=O)C2=NOC(C)(C)C2)n1 (stereo not drawn) [1.45] | 10 | 9 | 10 | 10 | 9 | – |
| Cn1nc(Br)c(C(F)(F)S(=O)(=O)C2=NOC(C)(C)C2)n1 [1.46] | 10 | 10 | 10 | 10 | 9 | – |
| Cn1nc(Br)c(C(F)(F)[S+]([O-])C2=NOC(C)(C)C2)n1 (stereo not drawn) [1.47] | 10 | 10 | 9 | 10 | 9 | – |
| CC1(C)CC(S(=O)(=O)C(F)(F)c2nn(CC3CCC3)nc2C(F)(F)F)=NO1 [1.48] | 10 | 9 | 10 | 6 | 9 | – |
| CC1(C)CC([S+]([O-])C(F)(F)c2nn(CC3CCC3)nc2C(F)(F)F)=NO1 (stereo not drawn) [1.49] | 10 | 9 | 10 | 10 | 9 | – |
| CC1(C)CC(S(=O)(=O)C(F)(F)c2cn(C(C)(C)C)nn2)=NO1 [2.02] | 9 | 3 | 9 | 9 | 8 | – |
| CC1(C)CC([S+]([O-])C(F)(F)c2cn(C(C)(C)C)nn2)=NO1 (stereo not drawn) [2.04] | 6 | 0 | 2 | 0 | 6 | – |
| Cn1nnc(C(F)(F)F)c1C(F)(F)S(=O)(=O)C1=NOC(C)(C)C1 [3.02] | 10 | 10 | 10 | 10 | – | 10 |
| Cn1nnc(Br)c1C(F)(F)[S+]([O-])C1=NOC(C)(C)C1 (stereo not drawn) [3.06] | 10 | 10 | 9 | 10 | 9 | – |
| Cc1nn(C)nc1C(F)S(=O)(=O)C1=NOC(C)(C)C1 (stereo not drawn) [Compound No. 1.04, 4-[(5,5-dimethyl-4,5-dihydro-isoxazole-3-sulfonyl)-fluoro-methyl]-2,5-dimethyl-2H-[1,2,3]triazole] | 10 | 9 | 10 | 10 | – | 9 |
